Laboratory results from PubChem BioAssay AID248 (DTP/NCI, 2004).
Several values for one entry are separate records, joined by “and”; a condition that tells them apart may be missing. Equal values may be shown once. Toxic doses and inconclusive results are not listed. Rule as the data show it: active = T/C of 150% or more; inactive = T/C below 125%.

System: L1210 leukemia ip in BDF1 mice, survival T/C
Assay: NCI In Vivo Anticancer Drug Screen. Data for tumor model L1210 Leukemia (intraperitoneal) in B6D2F1 (BDF1) mice
Settings: endpoint: mean survival time, higher = longer survival
Outline: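 In this screen, tumor-bearing mice given compound are compared to those given vehicle, and their survival values are reported as a treated-to-control quotient.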

[1] = dose: 50.0 mg/kg/injection, schedule: Q01DX009 (ip), vehicle: Klucel (hydroxypropylcellulose) (HPC)
[2] = dose: 100.0 mg/kg/injection, schedule: Q04DX003 (ip), vehicle: Klucel (hydroxypropylcellulose) (HPC)
[3] = dose: 100.0 mg/kg/injection, schedule: Q04DX003 (ip), vehicle: saline with Tween-80
[4] = dose: 200.0 mg/kg/injection, schedule: Q04DX003 (ip), vehicle: Klucel (hydroxypropylcellulose) (HPC)
[5] = dose: 100.0 mg/kg/injection, schedule: Q01DX009 (ip), vehicle: saline
[6] = dose: 25.0 mg/kg/injection, schedule: Q04DX002 (ip), vehicle: saline with Tween-80
[7] = dose: 50.0 mg/kg/injection, schedule: Q04DX002 (ip), vehicle: saline with Tween-80
[8] = dose: 200.0 mg/kg/injection, schedule: Q04DX003 (ip), vehicle: saline with Tween-80
[9] = dose: 400.0 mg/kg/injection, schedule: Q04DX003 (ip), vehicle: saline with Tween-80
[10] = dose: 50.0 mg/kg/injection, schedule: Q01DX001 (ip), vehicle: saline
[11] = dose: 100.0 mg/kg/injection, schedule: Q04DX003 (ip), vehicle: saline
[12] = dose: 200.0 mg/kg/injection, schedule: Q01DX009 (ip), vehicle: saline
[13] = dose: 200.0 mg/kg/injection, schedule: Q04DX003 (ip), vehicle: saline
[14] = dose: 400.0 mg/kg/injection, schedule: Q04DX003 (ip), vehicle: saline
[15] = dose: 100.0 mg/kg/injection, schedule: Q01DX009 (ip), vehicle: Klucel (hydroxypropylcellulose) (HPC)
[16] = dose: 200.0 mg/kg/injection, schedule: Q01DX009 (ip), vehicle: Klucel (hydroxypropylcellulose) (HPC)
[17] = dose: 400.0 mg/kg/injection, schedule: Q01DX009 (ip), vehicle: Klucel (hydroxypropylcellulose) (HPC)

Measured: T/C

CCCCC/C(C)=N\Nc1ccccn1
inactive: dose: 12.5 mg/kg/injection, schedule: Q01DX009 (ip), vehicle: Klucel (hydroxypropylcellulose) (HPC) 98 % of control | dose: 25.0 mg/kg/injection, schedule: Q01DX009 (ip), vehicle: Klucel (hydroxypropylcellulose) (HPC) 100 % of control | dose: 25.0 mg/kg/injection, schedule: Q01DX009 (ip), vehicle: acetone 97 % of control | dose: 50.0 mg/kg/injection, schedule: Q01DX001 (ip), vehicle: acetone 100 % of control | [1] 104 % of control | dose: 50.0 mg/kg/injection, schedule: Q01DX009 (ip), vehicle: acetone 100 % of control | dose: 50.0 mg/kg/injection, schedule: Q04DX003 (ip), vehicle: Klucel (hydroxypropylcellulose) (HPC) 95 % of control | dose: 50.0 mg/kg/injection, schedule: Q04DX003 (ip), vehicle: saline with Tween-80 100 % of control | dose: 100.0 mg/kg/injection, schedule: Q01DX001 (ip), vehicle: acetone 102 % of control | dose: 100.0 mg/kg/injection, schedule: Q01DX009 (ip), vehicle: acetone 88 % of control | [2] 101 % of control | [3] 100 % of control | dose: 200.0 mg/kg/injection, schedule: Q01DX001 (ip), vehicle: acetone 94 % of control | [4] 106 % of control

N=C(N)SCCCCSC(=N)N
inactive: dose: 25.0 mg/kg/injection, schedule: Q01DX009 (ip), vehicle: saline 92 % of control | dose: 50.0 mg/kg/injection, schedule: Q01DX009 (ip), vehicle: saline 97 % of control | [5] 94 % of control and 106 % of control

CN1C(=O)CC(C(=O)c2ccc(N3C(=O)C=CC3=O)cc2)(c2ccccc2)C1=O (stereo not given)
inactive: [6] 102 % of control | [7] 98 % of control

S=C(NCc1ccccc1)c1ccccc1
inactive: dose: 100.0 mg/kg/injection, schedule: Q01DX001 (ip), vehicle: Klucel (hydroxypropylcellulose) (HPC) 106 % of control | dose: 200.0 mg/kg/injection, schedule: Q01DX001 (ip), vehicle: Klucel (hydroxypropylcellulose) (HPC) 108 % of control | dose: 400.0 mg/kg/injection, schedule: Q01DX001 (ip), vehicle: Klucel (hydroxypropylcellulose) (HPC) 104 % of control

CCN(CC)C(=O)Sc1ccc(SC(=O)N(CC)CC)cc1
inactive: dose: 12.5 mg/kg/injection, schedule: Q04DX002 (ip), vehicle: saline with Tween-80 90 % of control | [6] 97 % of control | [7] 93 % of control | [3] 107 % of control | [8] 102 % of control | [9] 97 % of control

Cc1cc(C(=O)O)c2cccc(C(F)(F)F)c2n1
inactive: dose: 100.0 mg/kg/injection, schedule: Q01DX009 (ip), vehicle: saline with Tween-80 112 % of control | [3] 111 % of control | dose: 200.0 mg/kg/injection, schedule: Q01DX009 (ip), vehicle: saline with Tween-80 103 % of control | [8] 114 % of control | dose: 400.0 mg/kg/injection, schedule: Q01DX009 (ip), vehicle: saline with Tween-80 101 % of control | [9] 103 % of control

c1ccc(CN2CCCCc3ccccc32)cc1
inactive: [3] 93 % of control | [8] 88 % of control

C1CCC2(CC1)CCNCC2
inactive: [10] 102 % of control

CC(=O)OCC(C)CCC(=O)C(C)C1C(=O)CC2CC3CC(OC(C)=O)CCC3(C)CC21C (stereo not given)
inactive: dose: 100.0 mg/kg/injection, schedule: Q04DX002 (ip), vehicle: Klucel (hydroxypropylcellulose) (HPC) 96 % of control | dose: 200.0 mg/kg/injection, schedule: Q04DX002 (ip), vehicle: Klucel (hydroxypropylcellulose) (HPC) 100 % of control | dose: 400.0 mg/kg/injection, schedule: Q04DX002 (ip), vehicle: Klucel (hydroxypropylcellulose) (HPC) 96 % of control

CC(C)(C)C#CC#CC(C)(C)C
inactive: dose: 10.0 mg/kg/injection, schedule: Q04DX003 (ip), vehicle: saline 95 % of control | dose: 20.0 mg/kg/injection, schedule: Q04DX003 (ip), vehicle: saline 100 % of control | dose: 40.0 mg/kg/injection, schedule: Q04DX003 (ip), vehicle: saline 92 % of control

CCCCCCCSCCSCCSCCCCCCC
inactive: [2] 101 % of control | [4] 95 % of control | dose: 400.0 mg/kg/injection, schedule: Q04DX003 (ip), vehicle: Klucel (hydroxypropylcellulose) (HPC) 95 % of control

CCC1(O)CC(OC2CC(N(C)C)C(OC3CC(O)C(O)C(C)O3)C(C)O2)c2c(cc3c(c2O)C(=O)c2c(O)ccc(O)c2C3=O)C1C(=O)OC (stereo not given)
inactive: dose: 1.6 mg/kg/injection, schedule: Q01DX001 (ip), vehicle: saline 108 % of control | dose: 3.2 mg/kg/injection, schedule: Q01DX001 (ip), vehicle: saline 104 % of control | dose: 6.4 mg/kg/injection, schedule: Q01DX001 (ip), vehicle: saline 105 % of control

O=C1OC(=O)C2CCC12 (stereo not given)
inactive: dose: 75.0 mg/kg/injection, schedule: Q01DX001 (ip), vehicle: saline 93 % of control | [5] 91 % of control | [11] 98 % of control | dose: 150.0 mg/kg/injection, schedule: Q01DX001 (ip), vehicle: saline 101 % of control | [12] 93 % of control | [13] 101 % of control | dose: 300.0 mg/kg/injection, schedule: Q01DX001 (ip), vehicle: saline 112 % of control | [14] 98 % of control

O=C1NC(=O)C(=Cc2ccccc2)C(=O)N1
inactive: dose: 100.0 mg/kg/injection, schedule: Q04DX002 (ip), vehicle: saline with Tween-80 98 % of control | dose: 200.0 mg/kg/injection, schedule: Q01DX Z (ip), vehicle: methylcellulose (MC) 94 % of control | dose: 200.0 mg/kg/injection, schedule: Q04DX002 (ip), vehicle: saline with Tween-80 106 % of control

CCC[CH2][Sn]([CH2]C)([CH2]CCC)[CH2]CCC
inactive: [11] 93 % of control | [13] 93 % of control | [14] 95 % of control

COC1CCC(C2=NC3CCCCC3SC2)CC1 (stereo not given)
inactive: dose: 100.0 mg/kg/injection, schedule: Q04DX002 (sc), vehicle: olive oil, sesame oil, peanut oil 97 % of control | dose: 200.0 mg/kg/injection, schedule: Q04DX002 (sc), vehicle: olive oil, sesame oil, peanut oil 107 % of control | dose: 400.0 mg/kg/injection, schedule: Q04DX002 (sc), vehicle: olive oil, sesame oil, peanut oil 100 % of control

CCCCCCCCCCCCCCCCCC(=O)N/N=C/C=C/c1ccccc1
inactive: [1] 101 % of control | [15] 98 % of control | [16] 101 % of control and 91 % of control | [17] 100 % of control

CCOC(=O)CC(O)(COC)c1ccccc1 (stereo not given)
inactive: [10] 114 % of control | dose: 100.0 mg/kg/injection, schedule: Q01DX001 (ip), vehicle: saline 100 % of control | dose: 200.0 mg/kg/injection, schedule: Q01DX001 (ip), vehicle: saline 109 % of control | dose: 400.0 mg/kg/injection, schedule: Q01DX001 (ip), vehicle: saline 97 % of control

Cc1ccc(NC(=O)Oc2cc(C)c(Cl)cc2C(C)C)cc1
inactive: [15] 98 % of control | [16] 96 % of control | [17] 100 % of control

CCOC(=O)N1CCOCC1
inactive: [5] 100 % of control | [12] 97 % of control | dose: 400.0 mg/kg/injection, schedule: Q01DX009 (ip), vehicle: saline 96 % of control
